Measurements published in BindingDB's records for doi:10.7270/Q2TB15BF (Nmmlsc, 2009).

Molecular target: Cell division control protein 42 homolog (Homo sapiens, UniProt P60953)
Assay: wild-type Cdc42 GTP-binding inhibitors, SAR follow-up, biochemical, bead-based multiplex flow cytometry, additional SAR set (AID 2022)

Cell division control protein 42 homolog, sequence (P60953 whole entry): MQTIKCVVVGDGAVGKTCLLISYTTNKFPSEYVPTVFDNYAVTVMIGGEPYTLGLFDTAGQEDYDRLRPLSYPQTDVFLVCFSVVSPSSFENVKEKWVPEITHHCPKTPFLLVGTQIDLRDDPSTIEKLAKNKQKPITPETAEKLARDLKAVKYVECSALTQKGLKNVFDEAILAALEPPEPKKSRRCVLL

Ki [µM] | Compound
5.93 | O=C1N=c2c(F)cccc2=C1c1[nH]c2ccccc2c1NO [7-fluoro-3-[3-(hydroxyamino)-1H-indol-2-yl]-2-indolone]
0.01 | O=C1Nc2c(Cl)cccc2C1=C1Nc2ccccc2C1=O
